Columns and labels:
neutrophils in BALF = assay: Antigen-induced respiratory neutrophil infiltration in rat (BALF); type: in vivo, BN rats; conditions: Compound (I) 30 μg/rat, budesonide 10 μg/rat; for Number of neutrophils: mean±standard error
Method: (§1) Inhibitory Effect of Combined Administration of Compound (I) and Steroid Agent on Antigen-Induced Respiratory Eosinophil and Neutrophil Infiltration in Rat
(§2) The test was conducted according to a known method (Pulmonary Pharmacology, vol. 8, pp. 83-89 (1995)).
(§3) In the test, 6-week-old male BN rats (Charles River Japan) were used. The rats were placed in aluminum cages each containing 5 to 6 rats in a breeding room at room temperature (19° C. to 25° C.) and a humidity of 30% to 70% under illumination for 12 hours a day (7 a.m. to 7 p.m.) and bred by free intake of commercially available feeds and water.
(§4) A preparation (Compound (I)-lactose preparation) containing 5 mg of lactose (produced by DVM Corporation) to 1 mg of Compound (I) was prepared, and a suspension for administering Compound (I) was prepared by suspending the Compound (I)-lactose preparation in a 0.125 wt/vol % tyloxapol aqueous solution (ALEVAIRE: registered trade mark, produced by Azwell Inc.) so that the concentration of Compound (I) was 150 μg/mL. Also, a suspension for administering budesonide was prepared by suspending lactose and budesonide (manufactured by Sigma Corporation) in a 0.125 wt/vol % tyloxapol aqueous solution so that the concentrations of lactose and budesonide were 750 μg/mL and 50 μg/mL, respectively. Furthermore, a suspension for combined administration was prepared by suspending budesonide and the Compound (I)-lactose preparation prepared as described above in a 0.125 wt/vol % tyloxapol aqueous solution so that the concentrations of budesonide and Compound (I) were 50 μg/mL and 150 μg/mL, respectively. On the other hand, a solvent for administration was prepared by dissolving lactose in a 0.125 wt/vol % tyloxapol aqueous solution so that the concentration was 7.5 mg/mL.
(§5) The rats were subcutaneously administered with 1 mL of a suspension of 1 mg of ovalbumin (OVA, manufactured by Sigma Co.) and 200 mg of aluminum hydroxide (manufactured by Wako Pure Chemicals Industries, Ltd.) suspended in 1 mL of physiological saline (manufactured by Otsuka Pharmaceutical Co., Ltd.). Then, 0.5 mL of a suspension of killed Bordetella pertussis cells (2×10^10 cells/1 mL physiological saline, manufactured by Kaken Pharmaceutical Co., Ltd.) was intraperitoneally administered to perform active sensitization. Fourteen days after the active sensitization, the rats were placed in a plastic chamber (30×50×30 cm), and an 1 wt/vol % OVA physiological saline solution was nebulized for 10 minutes using an ultrasonic nebulizer (manufactured by Omron Corporation) to perform antigen challenge. […]
(§6) The total number of the leukocytes in BALF was measured with an automatic leukocyte counter (manufactured by Nihon Kohden Corporation). […]

eosinophils in BALF = assay: Antigen-induced respiratory eosinophil infiltration in rat (BALF); type: in vivo, BN rats; conditions: Compound (I) 30 μg/rat, budesonide 10 μg/rat; for Inhibition ratio (number of eosinophils) / Number of eosinophils: OVA-sensitized BN rats, intrabronchial 30 min before antigen challenge, BAL 24 h after; for Number of eosinophils: mean±standard error
Method: as §1, §2, §3, §4
as §5, with “challenge. Thirty minutes before the antigen-challenge, 100 μL of each of the suspensions for administration prepared as described above was intrabronchially administered to each of the right and left bronchi, i.e., administered in a total of 200 μL (medicine-administered group). Similarly, thirty minutes before the antigen challenge, a group which the solvent for administration was intrabronchially administered (solvent-administered group) was prepared. Also, a group which the solvent for administration was intrabronchially administered and a physiological saline was nebulized instead of the 1 wt/vol % OVA physiological saline solution (physiological saline-administered group) was prepared.” for “challenge.”
as §6

[1] = OVA-sensitized BN rats, intrabronchial 30 min before antigen challenge, BAL 24 h after

| Structure (SMILES) | Number of neutrophils (neutrophils in BALF; [1]) | Inhibition ratio (number of eosinophils) (eosinophils in BALF) [%] | Number of eosinophils (eosinophils in BALF) | Effect on the number of neutrophils in BALF (in words) (neutrophils in BALF; sole or combined) | Inhibition ratio (number of neutrophils) (neutrophils in BALF; OVA-sensitized BN rats, intrabronchial 30 min before antigen challenge, BAL 24 h after, N.E. = No effect) [%] | Inhibitory effect against increases in the number of eosinophils in BALF (in words) (eosinophils in BALF; sole or combined) |
| --- | --- | --- | --- | --- | --- | --- |
| CCCC1O[C@@H]2C[C@H]3[C@@H]4CCC5=CC(=O)C=C[C@]5(C)[C@H]4[C@@H](O)C[C@]3(C)[C@]2(C(=O)CO)O1 (stereo partly drawn) [Budesonide, budesonide, reference compound] | 2.50 ± 0.31 10^6/BALF | 54 | 0.26 ± 0.06 10^6/BALF | – | – | – |
| COc1ccc(C(=O)Cc2c(Cl)cncc2Cl)c2c1OC1(CCCC1)O2 [Compound (I), 7-[2-(3,5-dichloro-4-pyridyl)-1-oxoethyl]-4-methoxy-spiro[1,3-benzodioxol-2,1′-cyclopentane]] | 2.28 ± 0.27 10^6/BALF | 54 | 0.26 ± 0.08 10^6/BALF | not significantly affected | 3 | inhibitory effect against increases in the number of eosinophils was exhibited |

Reference: patent US20060199789A1, “medical composition” (Kyowa Hakko Kogyo Co., Ltd., priority 2003, published 2006)
